In a melting point compilation (Tetko et al.; mined from patent text by program, amines drawn as free bases though some values may be those of a salt):

In the case of `Clc1cc2nc(NC3CC3)[nH]c2cc1Cl`, the melting point is reported as 223 to 225 °C. With `CCOC(=O)c1c(C)nn(C)c1CCl` the melting point was 81 to 83 °C. Work on `OC1(c2ccccn2)CCC2CCCC21` (configuration not stated) yielded a melting point of 66 to 66.5 °C. In the case of `CCc1cn(C2CC(O)C(COC(c3ccccc3)(c3ccccc3)c3ccccc3)O2)c(=O)[nH]c1=O` (configuration not stated), the melting point is reported as 168 to 172 °C. With `CCOC(=O)CNC(=O)c1nc2ccc(NCCCN3CCC(OC(c4ccccc4)c4ccccc4)CC3)nn2c1C` the melting point was 158 to 160 °C. `Cc1noc(NS(=O)(=O)c2ccsc2C(N)=O)c1Br` showed a melting point of 168 to 170 °C. Compound `CCCCCCCCCCCC#Cc1cnccc1C=CC(=O)O` has a melting point of 177 to 178 °C. `Nc1cc(Br)ccc1-c1ccc(F)cc1F` gave a melting point of 67 to 69 °C. In the case of `Cc1ccc(C(=O)NC(NC(=NC#N)Nc2ccccc2F)C(Cl)(Cl)Cl)cc1` (configuration not stated), the melting point is reported as 220 to 222 °C. `O=C(c1cccs1)c1cnn2c(-c3csc([N+](=O)[O-])c3)ccnc12` showed a melting point of 225 to 226 °C. Compound `O=C1Nc2ccc(Cl)c(Cl)c2C1=O` has a melting point of 239 to 240 °C. `C=C(c1ccccc1)c1cccc(C(=NOCc2ccc(OCc3nc(-c4ccccc4)oc3C)cc2)C(=O)O)c1` gave a melting point of 171 to 172 °C. In the case of `COc1ccc(C=C2c3ccccc3C(=O)c3ccccc32)cc1OCC(=O)O`, the melting point is reported as 227 to 230 °C. In the case of `O=[N+]([O-])c1ccc2nc3c(nc2c1)CCCC3`, the melting point is reported as 175 to 178 °C. `CC(=O)NC[C@H]1CN(c2ccc(N3CCC4(CC3)COCO4)c(F)c2)C(=O)O1` gave a melting point of 142 to 144 °C. In the case of `COC(=O)c1ccc2c(Br)n[nH]c2c1`, the melting point is reported as 186 to 189 °C. `COC(=O)C1CCc2cc(OCc3nc(-c4ccccc4)oc3C)ccc2C1O` (configuration not stated) gave a melting point of 146 to 147 °C. Work on `CC1CCn2c(nc(-c3ccncn3)cc2=O)N1` (configuration not stated) yielded a melting point of 199 to 201 °C. `COc1ccc(C(=O)Nc2ccc(Cl)c(Cl)c2)cc1N` showed a melting point of 179 to 182 °C. Work on `CCOC(=O)COc1cc(Cl)c2c(=O)c(-c3ccc(OC)cc3)coc2c1` yielded a melting point of 121 to 122 °C. In the case of `CC(C)(C#N)c1cc(C=Cc2ccc(OS(N)(=O)=O)cc2)cc(Cn2cncn2)c1`, the melting point is reported as 151 to 152 °C. In the case of `N#Cc1nn(-c2c(Cl)cc(C(F)(F)F)cc2Cl)c(N)c1-c1cccs1`, the melting point is reported as 206 to 207 °C. `CCCN(CCC)c1c([N+](=O)[O-])cc(S(=O)(=O)N(C)SC)cc1[N+](=O)[O-]` showed a melting point of 119 to 121 °C. `CC(O)C=CS(C)(=O)=O` (configuration not stated) gave a melting point of 70 to 72 °C. `CSC[C@H](N)C(=O)NC(C)=O` gave a melting point of 120 to 123 °C. With `CCOC(=O)c1c(OC)c2ccccc2c2nc3ccccc3nc12` the melting point was 155 to 157 °C. Compound `O=C(NCc1cccnc1)c1sc(N2CCN(Cc3ccc(F)cc3)C2=O)nc1C(F)(F)F` has a melting point of 161 to 162 °C. `CN(C)c1ccc(-c2cc(=O)c(C(=O)O)cn2-c2ccc(O)c(O)c2)cc1` showed a melting point of 223 to 227 °C. Work on `CCOC(=O)/C(CCO[N+](=O)[O-])=C(\c1ccc(Cl)cc1)c1ccc(S(C)(=O)=O)cc1` yielded a melting point of 127 to 128 °C. `CC(C)(C)c1ccc(C(=O)c2ccc3n2Cc2ccccc2N(C(=O)COc2ccc(Cl)cc2)C3)cc1` showed a melting point of 171 °C. In the case of `CCC(CC)Oc1cc(C)nc2c1COCN2c1c(C)cc(Cl)cc1C`, the melting point is reported as 190 to 192 °C. With `NC(=O)C1CCc2sc3ccc(F)cc3c2C1` (configuration not stated) the melting point was 201 to 202 °C. Work on `N#CN1CCSC1=NC1CCc2ccccc21` (configuration not stated) yielded a melting point of 90 to 91 °C. For `Cc1ccc(S(=O)(=O)NCCCCCCCCCCCn2c3c(c4ccccc4c2=O)C(=O)c2ccccc2-3)cc1`, the melting point was 170 to 172 °C. Compound `NC(CF)C(=O)c1ccccc1` (configuration not stated) has a melting point of 40 to 42 °C. In the case of `CCN(O)C(=O)CCc1ccc2c(c1)C(=O)c1ccccc1CO2`, the melting point is reported as 120 °C. `CC(=O)Nc1cccc(C)n1` showed a melting point of 87 °C. Work on `Cc1ccc(S(=O)(=O)OCC2Cc3cccc(-c4ccc(F)c(Cl)c4)c3O2)cc1` (configuration not stated) yielded a melting point of 104 to 108 °C. In the case of `CCOC(=O)N1CCC2=C(C1)SCC2(NC(=O)CN)C(=O)c1ccccc1Cl` (configuration not stated), the melting point is reported as 95 to 97 °C. Compound `CC(NC(=O)Cc1cc(F)cc(F)c1)C(=O)NC1C(=O)NCc2ccc(F)cc21` (configuration not stated) has a melting point of 195 to 200 °C. Work on `O=C(O)CSc1c(C(=O)O)[nH]c2cc(Cl)cc(Cl)c12` yielded a melting point of 152 to 153 °C. With `Nc1cccc2c1CN(C(CCC(=O)O)C(=O)O)C2=O` (configuration not stated) the melting point was 183 to 185 °C. In the case of `CC(Cl)(Cl)C(NC(=O)c1ccc(C(F)(F)F)cc1)NC(=NS(=O)(=O)C(F)(F)F)Nc1cccnc1` (configuration not stated), the melting point is reported as 214 to 215 °C. Work on `O=S(c1ccc(C=Cc2nc(CCl)cs2)cc1)C(F)(F)F` (configuration not stated) yielded a melting point of 98 to 99 °C. For `O=C(Nc1ccccc1S(=O)(=O)C1CCCC1)N[C@@H](Cc1ccc(NC(=O)c2c(Cl)cncc2Cl)cc1)C(=O)O`, the melting point was 233 °C. Work on `Cc1ccc(CN2CCN(C3=NC4(C=CC(=O)C=C4)C(c4ccc(O)cc4)=C3)CC2)cc1` yielded a melting point of 140 °C. `COc1ccc(C(=O)O)c2c1OCCO2` gave a melting point of 224 to 226 °C. With `CN(C)c1ccc2c(c1)C(=O)CC(c1ccc(OCc3ccccc3)cc1)=N2` the melting point was 283 to 285 °C. With `CCn1ncnc1COc1nn2c(-c3ccccc3F)nncc2c1-c1ccco1` the melting point was 182 to 183 °C. `CCN1CCC(n2nnnc2C2(c3cc(C(C)C)ccc3OC)C=CC(O)=CC2O)CC1` (configuration not stated) gave a melting point of 144 to 147 °C. Compound `CCCCCC(O)CCCC(CCCCCCC(=O)O)S(C)(=O)=O` (configuration not stated) has a melting point of 47 to 48 °C. In the case of `O=S(=O)(c1ccc(Cl)cc1)C(c1cc(F)ccc1F)c1cc(NCCc2ccncc2)ncc1Cl` (configuration not stated), the melting point is reported as 148 to 150 °C. `C[C@@H]1[C@H](O[Si](C)(C)C(C)(C)C)[C@@H](C)C(S(=O)(=O)c2ccccc2)=C[C@H]1O` showed a melting point of 107 to 108 °C. `O=C(O)C(=O)c1ccc(OCCOc2ccccc2F)cc1` showed a melting point of 108 to 110 °C. `O=Cc1c[nH]nc1-c1ccc([N+](=O)[O-])o1` gave a melting point of 184 to 186 °C. `COc1c(C)c(C(=O)c2ccc3[nH]c(=O)n(N)c(=O)c3c2)n2ccccc12` gave a melting point of 220 °C. Compound `COc1ccc(-c2cc(C(=O)O)c(=O)n(CCCc3ccc(F)cc3)n2)cc1F` has a melting point of 185 to 187 °C. Work on `CC(=O)NCCNC1=NS(=O)(=O)c2cc(Cl)ccc2N1` yielded a melting point of 295 to 297 °C. Compound `CC(Oc1ccc(Br)cc1)(C(=O)O)c1ccccc1` (configuration not stated) has a melting point of 88 to 89 °C. For `NS(=O)(=O)c1ccc(-n2nccc2-c2ccc(Cl)cc2)cc1`, the melting point was 185 to 187 °C. In the case of `CC(C)n1nc(Cl)cc1O`, the melting point is reported as 138 to 140 °C. With `CCCC(=O)Nc1cccc2c1C(=O)N(C1CCC(=O)NC1=O)C2=O` (configuration not stated) the melting point was 171 to 173 °C. For `O=C1C=CC(O)(c2ccccn2)C=C1`, the melting point was 116 to 117 °C. For `CC(C)(C)OC(=O)N1C2C=CC(C2)N1CC(O)C(Cc1ccccc1)NC(=O)OCc1ccccc1` (mixture of isomers), the melting point was 111 to 113 °C. Compound `O=C1N(c2c(Cl)cccc2Cl)Cc2cnc(NC3CCCCC3)nc2N1c1ccccc1` has a melting point of 258 to 259 °C. `CC(C)(c1ccc(O)cc1)c1ccc(-c2ccc(C(C)(C)c3ccc(O)cc3)cc2)cc1` gave a melting point of 195 to 196 °C. With `CC(=O)c1c(C)[nH]c(-c2ccccc2)c1N(C)C` the melting point was 153 to 155 °C. With `CC1(C)N=C(CCO)C2=C(N1)N(Cc1ccccc1)C(=O)C(N)O2` (configuration not stated) the melting point was 124 to 126 °C. `CC(C)(C)OC(=O)NC(CI)c1ccc(F)cc1` (configuration not stated) gave a melting point of 138 to 139 °C. `CCCCCCCCCCCCn1nnc(C(C(=O)O)c2ccccc2)n1` (configuration not stated) showed a melting point of 55 to 57 °C. Work on `CC(C#N)c1ccc2oc(=S)[nH]c2c1` (configuration not stated) yielded a melting point of 173 to 176 °C. Work on `CCCCOC(=O)COc1ccc(C(=O)Nc2ccccc2Sc2cccc(C)c2-c2nnn[nH]2)cc1` yielded a melting point of 150 to 151 °C.
